Results taken from ChEMBL document CHEMBL2074346, “Mouse breast cancer resistance protein (Bcrp1/Abcg2) mediates etoposide resistance and transport, but etoposide oral availability is limited primarily by P-glycoprotein” (Cancer Res, 2003).

What was measured:
[1] = molecular target: T1, Broad substrate specificity ATP-binding cassette transporter ABCG2 (Mus musculus, UniProt Q7TMS5); assay: TP_TRANSPORTER: drug resistance in BCRP-expressing MEF3.8 cells; format: functional, cell-based
T1 sequence (Q7TMS5 whole entry): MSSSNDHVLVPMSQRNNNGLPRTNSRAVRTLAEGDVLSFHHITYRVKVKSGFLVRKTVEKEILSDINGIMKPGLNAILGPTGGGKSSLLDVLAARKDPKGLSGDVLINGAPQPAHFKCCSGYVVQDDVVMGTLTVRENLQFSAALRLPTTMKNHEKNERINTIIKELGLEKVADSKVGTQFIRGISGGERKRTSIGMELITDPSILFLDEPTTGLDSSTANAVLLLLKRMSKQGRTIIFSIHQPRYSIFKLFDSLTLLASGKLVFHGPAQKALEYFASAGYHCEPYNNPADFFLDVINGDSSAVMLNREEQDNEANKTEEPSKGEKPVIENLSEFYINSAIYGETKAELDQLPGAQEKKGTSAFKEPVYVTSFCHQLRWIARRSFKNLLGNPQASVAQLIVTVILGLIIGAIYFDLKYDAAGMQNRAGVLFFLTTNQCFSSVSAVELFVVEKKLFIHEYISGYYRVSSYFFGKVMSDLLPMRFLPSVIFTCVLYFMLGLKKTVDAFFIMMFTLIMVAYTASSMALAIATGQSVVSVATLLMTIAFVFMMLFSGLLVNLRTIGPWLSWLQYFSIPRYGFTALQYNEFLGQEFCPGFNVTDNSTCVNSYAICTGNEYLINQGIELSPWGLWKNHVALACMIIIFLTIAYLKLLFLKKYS

[2] = molecular target: T1, Broad substrate specificity ATP-binding cassette transporter ABCG2; assay: TP_TRANSPORTER: transepithelial transport (basal to apical) in BCRP-expressing MDCKII cells; format: functional, cell-based; settings: dog, mdck-ii

| Compound | Activity [1] | Activity [2] |
| --- | --- | --- |
| C(=N\NC1=NCCN1)/c1c2ccccc2c(/C=N/NC2=NCCN2)c2ccccc12 [BISANTRENE] | substrate [] |  |
| COc1cccc2c1C(=O)c1c(O)c3c(c(O)c1C2=O)C[C@@](O)(C(=O)CO)C[C@@H]3O[C@H]1C[C@H](N)[C@H](O)[C@H](C)O1 [DOXORUBICIN] | substrate [] |  |
| COc1cc([C@@H]2c3cc4c(cc3[C@@H](O[C@@H]3O[C@@H]5CO[C@@H](C)O[C@H]5[C@H](O)[C@H]3O)[C@H]3COC(=O)[C@H]23)OCO4)cc(OC)c1O [ETOPOSIDE] | substrate [] | substrate [] |
| O=C1c2c(O)ccc(O)c2C(=O)c2c(NCCNCCO)ccc(NCCNCCO)c21 [MITOXANTRONE] | substrate [] |  |
| COc1cc([C@@H]2c3cc4c(cc3[C@@H](O[C@@H]3O[C@@H]5CO[C@@H](c6cccs6)O[C@H]5[C@H](O)[C@H]3O)[C@H]3COC(=O)[C@H]23)OCO4)cc(OC)c1O [TENIPOSIDE] | substrate [] |  |

Other lines, results leading:

| Activity [1] | Activity [2] | Compound |
| --- | --- | --- |
| substrate [] |  | CC[C@@]1(O)C(=O)OCc2c1cc1n(c2=O)Cc2cc3c(CN(C)C)c(O)ccc3nc2-1 [TOPOTECAN] |
| substrate [] |  | CC[C@]1(O)C[C@H]2CN(CCc3c([nH]c4ccccc34)[C@@](C(=O)OC)(c3cc4c(cc3OC)N(C=O)[C@H]3[C@@](O)(C(=O)OC)[C@H](OC(C)=O)[C@]5(CC)C=CCN6CC[C@]43[C@@H]65)C2)C1 [VINCRISTINE] |
